The source of these data is patent US6143739A, “Basic proline-amide derivatives of GE 2270 and GE 2270-like antibiotics” (Biosearch Italia S.p.A., priority 1995, dated 2000).

Test [1] relates to Haemoph. influenzae ATCC 19418 L970. Briefly: MIC by microbroth dilution. Format: cell-based, Haemophilus influenzae. The note with it: 0.01% (w/v) BSA, 10^4 CFU/ml, read after 48 h, 37° C., 5% CO2, brain heart infusion broth+1% Supplement C. The procedure:
(§1) The minimal inhibitory concentration (MIC) has been determined by microbroth dilution methodology, in the presence of 0.01% (w/v) of bovine serum albumin (BSA). BSA is added to the diluent to avoid possible adherence of the compounds of the invention to the plastic surface of the microtiter wells, as disclosed also by B. Goldstein et al., Antimicrobial Agents and Chemotherapy, 37 (1993), 741-745.
(§2) Inocula were 10^4 CFU/ml, except for Propionibacterium acnes and Bacteroides fragilis (10^5 CFU/ml).
(§3) MICs were read after 18-24 h, except for Haemophilus influenzae, P. acnes, B. fragilis (48 h).
(§4) All microorganisms were incubated at 37° C.; H. influenzae in a 5% CO2 atmosphere, anaerobes in a N2 --CO2 --H2 (80:10:10) mixture; other organisms in air.
(§5) The growth media are: Oxoid Iso-Sensitest broth for staphylococci and Enterococcus faecalis); Difco Todd Hewitt broth for streptococci; Difco brain heart infusion broth+1% Difco Supplement C for H. influenzae; Difco Wilkins-Chalgren broth for anaerobes.

The subject of test [2] is Strept. pneumoniae L44. Kind of test: MIC by microbroth dilution. The note with it: 0.01% (w/v) BSA, 10^4 CFU/ml, read after 18-24 h, 37° C., Todd Hewitt broth. Format: cell-based. The procedure:
BSA is added to the diluent to avoid possible adherence of the compounds of the invention to the plastic surface of the microtiter wells, as disclosed also by B. Goldstein et al., Antimicrobial Agents and Chemotherapy, 37 (1993), 741-745. Inocula were 10^4 CFU/ml, except for Propionibacterium acnes and Bacteroides fragilis (10^5 CFU/ml). MICs were read after 18-24 h, except for Haemophilus influenzae, P. acnes, B. fragilis (48 h). All microorganisms were incubated at 37° C.; H. influenzae in a 5% CO2 atmosphere, anaerobes in a N2 --CO2 --H2 (80:10:10) mixture; other organisms in air. The growth media are: Oxoid Iso-Sensitest broth for staphylococci and Enterococcus faecalis); Difco Todd Hewitt broth for streptococci; Difco brain heart infusion broth+1% Difco Supplement C for H. influenzae; Difco Wilkins-Chalgren broth for anaerobes.
(In general: Broth dilution looks for growth in wells or tubes with falling amounts of substance.)

Test [3] deals with Enterococc. faecalis ATCC 7080 L149. Briefly: MIC by microbroth dilution. Particulars: 0.01% (w/v) BSA, 10^4 CFU/ml, read after 18-24 h, 37° C., Iso-Sensitest broth. Format: cell-based, Enterococcus faecalis. As to the method:
as §1, §2, §3, §4, §5

The test system of test [4] is Staph. epidermidis ATCC 12228 L147. Kind of test: MIC by microbroth dilution. Format: cell-based. Particulars: 0.01% (w/v) BSA, 10^4 CFU/ml, read after 18-24 h, 37° C., Iso-Sensitest broth. The procedure: as §1, §2, §3, §4, §5
Test [5] deals with Staphylococcus aureus L165. Briefly: MIC by microbroth dilution. Type of test: cell-based. The note with it: 0.01% (w/v) BSA, 10^4 CFU/ml, read after 18-24 h, 37° C., Iso-Sensitest broth. As to the method: as §1, §2, §3, §4, §5
Test [6] deals with Staph. haemolyticus L602. Briefly: MIC by microbroth dilution. The note with it: 0.01% (w/v) BSA, 10^4 CFU/ml, read after 18-24 h, 37° C., Iso-Sensitest broth. Format: cell-based. As to the method: as §1, §2, §3, §4, §5
Test [7] relates to Bacteroides fragilis ATCC 25285 L1011. Kind of test: MIC by microbroth dilution. Format: cell-based. The note with it: 0.01% (w/v) BSA, 10^5 CFU/ml, read after 48 h, 37° C., anaerobic N2-CO2-H2, Wilkins-Chalgren broth. As to the method: as §1, §2, §3, §4, §5
Test [8] concerns Strept. sanguis L1721. Kind of test: MIC by microbroth dilution. Type of test: cell-based. The note with it: 0.01% (w/v) BSA, 10^4 CFU/ml, read after 18-24 h, 37° C., Todd Hewitt broth. The procedure:
as §1, §2, §3, §4, §5

In test [9] the test system is Streptococcus pyogenes L49. Kind of test: MIC by microbroth dilution. Type of test: cell-based. The note with it: 0.01% (w/v) BSA, 10^4 CFU/ml, read after 18-24 h, 37° C., Todd Hewitt broth. The procedure:
as §1, §2, §3, §4, §5

The test system of test [10] is Propionibact. acnes ATCC 6919 L1014. Briefly: MIC by microbroth dilution. Format: cell-based, Propionibacterium acnes. The note with it: 0.01% (w/v) BSA, 10^5 CFU/ml, read after 48 h, 37° C., anaerobic N2-CO2-H2, Wilkins-Chalgren broth. The procedure: as §1, §2, §3, §4, §5
Test [11] relates to staphylococci isolates. Briefly: MIC on clinical isolates. Format: cell-based. Particulars: highest MIC observed.
Test [12] relates to S. pyogenes (L49). Briefly: experimental septicemia in the mouse. Format: in vivo. The note with it: immunocompetent CD-1 mice infected i.p.; intravenously twice, immediately and 5 hours after infection; survival on the 7th day. The procedure:
(§6) The antimicrobial activity of the compounds of the invention is confirmed also in experimental septicemia in the mouse. Control and treatment groups contain ten CD-1 mice (Charles River) weighing 18-22 g. Two groups of immunocompetent mice are infected intraperitoneally with 0.5 ml of bacterial suspension prepared by diluting an overnight culture of S. aureus ([…]) or S. pyogenes ([…]) with sterile peptonized saline, while one group of neutropenic mice is infected intraperitoneally with 0.5 ml of bacterial suspension prepared by diluting an overnight culture of or E. faecalis ([…]) with sterile peptonized saline. Inocula are adjusted so that untreated animals died of septicemia within 48 h. The compound to be tested is administered intravenously once, immediately after infection with S. aureus, or twice, immediately and 5 hours after infection with S. pyogenes or E. faecalis. On the 7th day, the ED50 in mg/kg is calculated by the method of Spearman and Kraber (D. J. Finney "Statistical Methods in Biological Assay", Griffin, page 524, 1952) from the percentage of surviving animals at each dose.

The subject of test [13] is S. aureus (L819). Kind of test: experimental septicemia in the mouse. Format: in vivo. Particulars: immunocompetent CD-1 mice infected i.p.; intravenously once, immediately after infection; survival on the 7th day. As to the method: as §6
Test [14] has as its system E. faecalis (L1139). Kind of test: experimental septicemia in the mouse (neutropenic). Type of test: in vivo. Particulars: neutropenic CD-1 mice infected i.p.; intravenously twice, immediately and 5 hours after infection; survival on the 7th day. The procedure: as §6
Test [15] deals with Strept. agalactiae L310. Briefly: MIC by microbroth dilution. Format: cell-based. The note with it: 0.01% (w/v) BSA, 10^4 CFU/ml, read after 18-24 h, 37° C., Todd Hewitt broth. The procedure:
as §1, §2, §3, §4, §5

For test [16], the system named is enterococci isolates. Briefly: MIC on clinical isolates. Type of test: cell-based. The note with it: highest MIC observed.
The subject of test [17] is streptococci isolates. Briefly: MIC on clinical isolates. Type of test: cell-based. The note with it: highest MIC observed.
Test [18] deals with gram positive bacteria. Particulars: described by K. Shimanaka et al.; cited from earlier work.

As to `CCN(CC)CCNC(=O)C1CCCN1C(=O)C1COC(c2csc(-c3ccc4c(n3)-c3csc(n3)-c3csc(n3)C(C(O)c3ccccc3)NC(=O)CNC(=O)c3nc(sc3COC)C(C(C)C)NC(=O)c3nc(sc3C)C(CC(=O)NC)NC(=O)c3csc-4n3)n2)=N1` (mixture of isomers) [Compound 3], the “MIC of the compounds, Haemoph. influenzae ATCC 19418 L970” value in test [1] came to 8 µg/mL. Moreover, the “MIC of the compounds, Strept. pneumoniae L44” value (“MIC … Strept. pneumoniae L44” for short) in test [2] turned out to be 0.13 µg/mL. In [3], the “MIC of the compounds, Enterococc. faecalis ATCC 7080 L149” value came to 0.03 µg/mL. Also, the “MIC of the compounds, Staph. epidermidis ATCC 12228 L147” value in test [4] is 0.13 µg/mL. Also, the “MIC of the compounds, Staphylococcus aureus L165” value (“MIC … Staphylococcus aureus L165” for short) in test [5] was found to be 0.03 µg/mL. The “MIC of the compounds, Staph. haemolyticus L602” value in test [6] amounted to 0.13 µg/mL. The “MIC of the compounds, Bacteroides fragilis ATCC 25285 L1011” value in test [7] came out at 8 µg/mL. The “MIC of the compounds, Strept. sanguis L1721” value (“MIC … Strept. sanguis L1721” for short) in test [8] came out at 0.25 µg/mL. Further, the “MIC of the compounds, Streptococcus pyogenes L49” value (“MIC … Streptococcus pyogenes L49” below) in test [9] was determined as 0.5 µg/mL. The “MIC of the compounds, Propionibact. acnes ATCC 6919 L1014” value in test [10] is 0.03 µg/mL.
On to `CCN(CC)CCNC(=O)C1CCCN1C(=O)C1COC(c2csc(-c3ccc4c(n3)-c3csc(n3)-c3csc(n3)C(C(O)c3ccccc3)NC(=O)CNC(=O)c3nc(sc3COC)C(C(C)C)NC(=O)c3nc(sc3C)C(CC(=O)NC)NC(=O)c3csc-4n3)n2)=N1` (stereo not drawn) [Compound 3s], for which the “MIC of the compounds, Haemoph. influenzae ATCC 19418 L970” value in test [1] is 8 µg/mL. The “MIC against staphylococci isolates” value in [11] is not above 0.5 µg/mL. Further, in test [12], the “ED50 in experimental septicemia, S. pyogenes (L49)” value is reported as 7 mg/kg/dose. Further, the “ED50 in experimental septicemia, S. aureus (L819)” value in [13] was found to be 1.5 mg/kg/dose. For the same compound, the “MIC … Strept. pneumoniae L44” value in test [2] amounted to 0.13 µg/mL. The “MIC of the compounds, Enterococc. faecalis ATCC 7080 L149” value in [3] was determined as 0.06 µg/mL. The “ED50 in experimental septicemia, E. faecalis (L1139)” value in test [14] is 0.67 mg/kg/dose. Further, in [4], the “MIC of the compounds, Staph. epidermidis ATCC 12228 L147” value was determined as 0.13 µg/mL. Besides, in [5], the “MIC … Staphylococcus aureus L165” value amounted to 0.06 µg/mL. In addition, the “MIC of the compounds, Staph. haemolyticus L602” value in [6] came to 0.13 µg/mL. Moreover, the “MIC of the compounds, Strept. agalactiae L310” value in test [15] came to 0.5 µg/mL. Also, the “MIC of the compounds, Bacteroides fragilis ATCC 25285 L1011” value in test [7] worked out at 8 µg/mL. Further, the “MIC … Strept. sanguis L1721” value in test [8] came out at 0.13 µg/mL. Besides, the “MIC … Streptococcus pyogenes L49” value in test [9] stood at 0.25 µg/mL. Also, the “MIC against enterococci isolates” value in test [16] was not above 0.13 µg/mL. Further, the “MIC against streptococci isolates” value in [17] was not above 1.0 µg/mL. Further, the “MIC of the compounds, Propionibact. acnes ATCC 6919 L1014” value in [10] is 0.03 µg/mL.
Consider `CNC(=O)CC1NC(=O)c2csc(n2)-c2ccc(-c3nc(C4=NC(C(=O)N5CCCC5C(=O)N(C)CCN(C)C)CO4)cs3)nc2-c2csc(n2)-c2csc(n2)C(C(O)c2ccccc2)NC(=O)CNC(=O)c2nc(sc2COC)C(C(C)C)NC(=O)c2nc1sc2C` (mixture of isomers) [Compound 5], for which, in test [1], the “MIC of the compounds, Haemoph. influenzae ATCC 19418 L970” value was found to be 128 µg/mL. In addition, the “MIC … Strept. pneumoniae L44” value in test [2] amounted to 0.25 µg/mL. Moreover, the “MIC … Staphylococcus aureus L165” value in test [5] stood at 0.06 µg/mL. The “MIC … Strept. sanguis L1721” value in test [8] was 0.25 µg/mL. In test [9], the “MIC … Streptococcus pyogenes L49” value came out at 1 µg/mL.
Consider `CNC(=O)CC1NC(=O)c2csc(n2)-c2ccc(-c3nc(C4=NC(C(=O)N5CCCC5C(N)=O)CO4)cs3)nc2-c2csc(n2)-c2csc(n2)C(C(C)C)NC(=O)CNC(=O)c2csc(n2)C(C(C)C)NC(=O)c2nc1sc2C` (stereo not drawn) [amythiamicin factor A], for which the “antimicrobial activity against gram positive bacteria” value in [18] was “shows antimicrobial activity against gram positive bacteria”.
